Measured values taken from publication PMC3501149 (ACS Chemical Biology, 2012).

Molecular target: firefly luciferase (Fluc) (Photinus pyralis, UniProt P08659)
Test: luminescence emission spectrum
Format: biochemical

Chain of firefly luciferase (Fluc) (P08659 whole entry): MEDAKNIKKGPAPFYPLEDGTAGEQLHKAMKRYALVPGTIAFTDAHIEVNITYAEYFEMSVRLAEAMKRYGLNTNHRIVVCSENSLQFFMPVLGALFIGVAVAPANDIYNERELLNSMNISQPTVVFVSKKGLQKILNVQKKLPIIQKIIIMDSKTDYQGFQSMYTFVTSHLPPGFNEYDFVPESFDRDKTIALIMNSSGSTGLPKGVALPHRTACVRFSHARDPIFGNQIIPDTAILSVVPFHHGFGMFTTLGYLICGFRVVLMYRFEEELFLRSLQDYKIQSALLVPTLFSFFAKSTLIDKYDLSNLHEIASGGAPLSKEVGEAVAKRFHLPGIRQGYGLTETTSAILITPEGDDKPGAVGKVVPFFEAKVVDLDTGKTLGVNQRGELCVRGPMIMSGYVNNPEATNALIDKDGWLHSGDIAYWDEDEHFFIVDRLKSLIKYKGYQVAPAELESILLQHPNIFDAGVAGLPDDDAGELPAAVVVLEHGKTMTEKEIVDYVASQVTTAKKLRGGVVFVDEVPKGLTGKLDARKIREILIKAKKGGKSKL

- luminescence emission spectrum: Fluc (D-luciferin)
Structure (SMILES): O=C(O)[C@H]1CSC(c2nc3ccc(O)cc3s2)=N1 [D-luciferin]
